Experimental data: patent US8236354B1, “Use of immunomodulators for the treatment of cancer” (ZOR Pharmaceuticals, LLC, priority 2012, dated 2012)

How the values were obtained:
[1] = in vivo
Procedure: (§1) VIRULIZIN® or placebo was administered as intramuscular injections of 3 mL with dosing 3 times weekly (Monday, Wednesday, Friday) in Stages 1, 2 and 3.
(§2) Following pain stabilization screening, all randomized patients in Stages 1 and 2 received 30-minute intravenous infusions of gemcitabine at a dose of 1 g/m2 weekly for the first 7 weeks, followed by a week of rest. Subsequent cycles consisted of 28-day cycles with gemcitabine dosing on days 1, 8 and 15. Guidelines for dose reduction in case of toxicity were provided from the Official Product Prescribing Guidelines. Dosing continued until intolerance to gemcitabine developed, or there was symptom progression, or no evidence of clinical benefit. […] The patient's physician made the decision concerning 5-FU chemotherapy or best supportive care.
Safety was evaluated based upon adverse events (AEs), laboratory tests, and vital signs.

[2] = tested on: advanced (unresectable or metastatic) pancreatic adenocarcinoma; assay: Phase 3 double-blind, randomized, placebo-controlled 3-stage trial: survival and time to symptom progression; assay type: in vivo, human; conditions: for Median survival time from entry into study Stage 3 to death from any cause: Stage 3 test product with or without 5-FU
Procedure: This was a double-blind, multicenter, randomized, 2-arm, parallel group, 3-stage trial. Median survival was the primary end-point calculated from Kaplan-Meier plots of survival of the Intention to Treat data set.
The blood pharmacokinetic profiles of gemcitabine and VIRULIZIN® were assessed by an independent (unblinded) pharmacokinetics assessor. Stage 1 was performed at selected sites. Immune stimulation assays were also to be performed in these patients.
The decision to discontinue patients from Stage 2 and move them into Stage 3 and to continue or discontinue study treatment was at the discretion of the investigator.
However, if the investigator believed further chemotherapy was not in the best interest of the patient (based on hematological profile, symptom progression or no evidence of clinical benefit), the patient continued to receive best supportive care, with or without continued injections of VIRULIZIN® or placebo. The first 18 patients entering Stage 3 and receiving VIRULIZIN® or placebo plus intravenous infusions of 5-FU were to have blood samples taken to assess the pre- and post-dose plasma concentrations of 5-FU.
Male or female patients, aged 18 years or older, with advanced (unresectable or metastatic) pancreatic adenocarcinoma (tumor staging definition—tumor, lymph nodes, metastasis [TNM] stages II, III or IV) who had not received previous systemic chemotherapy, who had Eastern Cooperative Oncology Group (ECOG) Score 0, 1 or 2, and life expectancy greater than or equal to 12 weeks were included in the study.
as §1, §2
Efficacy was evaluated based upon survival time, defined as the time from Baseline/Treatment Day 1 to the time of death from any cause. Time to progression of symptoms, consisting of: time to increase in pain (with consideration of analgesic consumption), time to deterioration in ECOG score, and time to weight loss.

[3] = Efficacy evaluable, ECOG 0 or 1, value (95% CI)
[4] = Efficacy evaluable, Overall, value (95% CI)
[5] = Intention to Treat, ECOG 0 or 1, value (95% CI)
[6] = Intention to Treat, Metastatic, value (95% CI)
[7] = Intention to Treat, Overall, value (95% CI)

For `Nc1ccn([C@@H]2O[C@H](CO)[C@@H](O)C2(F)F)c(=O)n1` [Placebo plus gemcitabine, gemcitabine], the “Abdominal pain (not otherwise specified): (%) of Patients” value [1] was “(26.2) %”, the “Abdominal pain (not otherwise specified): Number of Events” value [1] was 96 and the “Abdominal pain (not otherwise specified): Number of Patients” value [1] was 56. For the same compound, the “Abdominal pain upper: (%) of Patients” value [1] was “(11.7) %”, the “Abdominal pain upper: Number of Events” value [1] was 35 and the “Abdominal pain upper: Number of Patients” value [1] was 25. The “Alanine aminotransferase increased: (%) of Patients” value [1] was “(7.0) %”, the “Alanine aminotransferase increased: Number of Events” value [1] was 21 and the “Alanine aminotransferase increased: Number of Patients” value [1] was 15. The “Anemia (not otherwise specified): (%) of Patients” value [1] was “(43.9) %”, the “Anemia (not otherwise specified): Number of Events” value [1] was 206 and the “Anemia (not otherwise specified): Number of Patients” value [1] was 94. For the same compound, the “Anorexia: (%) of Patients” value [1] was “(23.8) %”, the “Anorexia: Number of Events” value [1] was 71 and the “Anorexia: Number of Patients” value [1] was 51. The “Ascites: (%) of Patients” value [1] was “(17.8) %”, the “Ascites: Number of Events” value [1] was 51 and the “Ascites: Number of Patients” value [1] was 38. For the same compound, the “Aspartate aminotransferase increased: (%) of Patients” value [1] was “(8.9) %”, the “Aspartate aminotransferase increased: Number of Events” value [1] was 27 and the “Aspartate aminotransferase increased: Number of Patients” value [1] was 19. For the same compound, the “Back pain: (%) of Patients” value [1] was “(9.8) %”, the “Back pain: Number of Events” value [1] was 30 and the “Back pain: Number of Patients” value [1] was 21. The “Blood alkaline phosphatase increased (not otherwise specified): (%) of Patients” value [1] was “(9.8) %”, the “Blood alkaline phosphatase increased (not otherwise specified): Number of Events” value [1] was 28 and the “Blood alkaline phosphatase increased (not otherwise specified): Number of Patients” value [1] was 21. For the same compound, the “Constipation: (%) of Patients” value [1] was “(18.7) %”, the “Constipation: Number of Events” value [1] was 57 and the “Constipation: Number of Patients” value [1] was 40. For the same compound, the “Dehydration: (%) of Patients” value [1] was “(8.9) %”, the “Dehydration: Number of Events” value [1] was 26 and the “Dehydration: Number of Patients” value [1] was 19. The “Diarrhea (not otherwise specified): (%) of Patients” value [1] was “(21.5) %”, the “Diarrhea (not otherwise specified): Number of Events” value [1] was 79 and the “Diarrhea (not otherwise specified): Number of Patients” value [1] was 46. For the same compound, the “Disease progression (not otherwise specified): (%) of Patients” value [1] was “(11.7) %”, the “Disease progression (not otherwise specified): Number of Events” value [1] was 25 and the “Disease progression (not otherwise specified): Number of Patients” value [1] was 25. For the same compound, the “Dyspnea (not otherwise specified): (%) of Patients” value [1] was “(15.4) %”, the “Dyspnea (not otherwise specified): Number of Events” value [1] was 46 and the “Dyspnea (not otherwise specified): Number of Patients” value [1] was 33. For the same compound, the “Edema peripheral: (%) of Patients” value [1] was “(24.3) %”, the “Edema peripheral: Number of Events” value [1] was 76 and the “Edema peripheral: Number of Patients” value [1] was 52. The “Fatigue: (%) of Patients” value [1] was “(36.0) %”, the “Fatigue: Number of Events” value [1] was 178 and the “Fatigue: Number of Patients” value [1] was 77. For the same compound, the “Headache (not otherwise specified): (%) of Patients” value [1] was “(6.5) %”, the “Headache (not otherwise specified): Number of Events” value [1] was 42 and the “Headache (not otherwise specified): Number of Patients” value [1] was 14. For the same compound, the “Jaundice (not otherwise specified): (%) of Patients” value [1] was “(11.7) %”, the “Jaundice (not otherwise specified): Number of Events” value [1] was 30 and the “Jaundice (not otherwise specified): Number of Patients” value [1] was 25. The “Leukopenia (not otherwise specified): (%) of Patients” value [1] was “(13.6) %”, the “Leukopenia (not otherwise specified): Number of Events” value [1] was 67 and the “Leukopenia (not otherwise specified): Number of Patients” value [1] was 29. The “Nausea: (%) of Patients” value [1] was “(42.1) %”, the “Nausea: Number of Events” value [1] was 269 and the “Nausea: Number of Patients” value [1] was 90. The “Neutropenia: (%) of Patients” value [1] was “(32.2) %”, the “Neutropenia: Number of Events” value [1] was 212 and the “Neutropenia: Number of Patients” value [1] was 69. For the same compound, the “Pyrexia: (%) of Patients” value [1] was “(30.4) %”, the “Pyrexia: Number of Events” value [1] was 184 and the “Pyrexia: Number of Patients” value [1] was 65. For the same compound, the “Rash (not otherwise specified): (%) of Patients” value [1] was “(9.3) %”, the “Rash (not otherwise specified): Number of Events” value [1] was 26 and the “Rash (not otherwise specified): Number of Patients” value [1] was 20. For the same compound, the “Rigors: (%) of Patients” value [1] was “(15.4) %”, the “Rigors: Number of Events” value [1] was 97 and the “Rigors: Number of Patients” value [1] was 33. The “Thrombocytopenia: (%) of Patients” value [1] was “(29.9) %”, the “Thrombocytopenia: Number of Events” value [1] was 196 and the “Thrombocytopenia: Number of Patients” value [1] was 64. For the same compound, the “Vomiting (not otherwise specified): (%) of Patients” value [1] was “(29.4) %”, the “Vomiting (not otherwise specified): Number of Events” value [1] was 141 and the “Vomiting (not otherwise specified): Number of Patients” value [1] was 63. The “Weakness: (%) of Patients” value [1] was “(23.8) %”, the “Weakness: Number of Events” value [1] was 82 and the “Weakness: Number of Patients” value [1] was 51. For the same compound, the “Weight decreased: (%) of Patients” value [1] was “(12.1) %”, the “Weight decreased: Number of Events” value [1] was 38 and the “Weight decreased: Number of Patients” value [1] was 26. The “Median survival time, study enrollment to death from any cause” value (“Median survival time, study enrollment” below) [2, 3] was 6.3 (5.0 to 7.2) months, the “Percent 12-Month Survival” value [2, 3] was 20.1 (12.8 to 27.4) % and the “Median survival time, study enrollment” value ([2]; Efficacy evaluable, ECOG 2, value (95% CI)) was 5.5 (4.3 to 7.4) months. For the same compound, the “Median survival time, study enrollment” value ([2]; Efficacy evaluable, Locally advanced disease, value (95% CI)) was 8.1 (7.1 to 11.2) months, the “Median survival time, study enrollment” value ([2]; Efficacy evaluable, Metastatic disease, value (95% CI)) was 5.0 (4.3 to 6.0) months and the “Percent 12-Month Survival” value ([2]; Efficacy evaluable, Metastatic, value (95% CI)) was 10.9 (5.4 to 16.4) %. For the same compound, the “Median survival time, study enrollment” value [2, 4] was 6.0 (5.1 to 7.0) months, the “Percent 12-Month Survival” value [2, 4] was 16.9 (11.2 to 22.6) % and the “Median survival time, study enrollment” value ([2]; Efficacy evaluable, Patients participating in study Stage 3, value (95% CI)) was 7.4 (6.8 to 8.6) months. For the same compound, the “median duration of participation in study Stages 1 and/or 2” value (shortened to “median duration of participation”) ([2]; FIG. 5, 248 Intention to Treat patients who participated in study Stage 3) was 6.31 months, the “median duration of participation” value ([2]; FIG. 6, Stage 3 participants, High ECOG score of 2) was 6.31 months and the “median duration of participation” value ([2]; FIG. 6, Stage 3 participants, Low ECOG score of 0 or 1) was 7.13 months. The “Median survival time from study enrollment to death from any cause” value [2, 5] was 6.4 (5.0 to 7.3) months, the “Percent 12-Month Survival” value [2, 5] was 21.1 (14.3 to 28.0) % and the “Median survival time from study enrollment to death from any cause” value ([2]; Intention to Treat, ECOG 0 or 1, value (95% CI), listed as placebo and gemcitabine) was 6.4 months. The “Median survival time from study enrollment to death from any cause” value ([2]; Intention to Treat, ECOG 0 or 1, value (95% CI), listed as placebo plus gemcitabine) was 6.4 months, the “Median survival time from study enrollment to death from any cause” value ([2]; Intention to Treat, ECOG 2, value (95% CI)) was 5.1 (4.1 to 6.8) months and the “Median survival time from study enrollment to death from any cause” value ([2]; Intention to Treat, ECOG 2, value (95% CI), listed as placebo and gemcitabine) was 5.1 months. The “Median survival time from study enrollment to death from any cause” value ([2]; Intention to Treat, ECOG 2, value (95% CI), listed as placebo plus gemcitabine) was 6.4 months, the “time to progression of pain from time of randomization” value ([2]; Intention to Treat, ECOG score of 0 or 1) was 9.0 mo and the “Median survival time from study enrollment to death from any cause” value ([2]; Intention to Treat, Locally advanced, value (95% CI)) was 8.4 (7.1 to 11.2) months. For the same compound, the “Median survival time from study enrollment to death from any cause” value [2, 6] was 5.0 (4.3 to 6.0) months, the “Percent 12-Month Survival” value [2, 6] was 13.3 (8.0 to 18.6) % and the “Median survival time from study enrollment to death from any cause” value [2, 7] was 6.0 (5.1 to 7.0) months. The “Percent 12-Month Survival” value [2, 7] was 17.7 (12.3 to 23.0) %, the “Median survival time from study enrollment to death from any cause” value ([2]; Intention to Treat, Overall, value (95% CI), listed as placebo plus gemcitabine) was 6.0 months and the “Median survival time from study enrollment to death from any cause” value ([2]; Intention to Treat, Patients participating in study Stage 3, value (95% CI)) was 7.5 (6.8 to 9.4) months. The “Median survival time from study enrollment to death from any cause” value ([2]; Intention to Treat, Patients participating in study Stage 3, value (95% CI), listed as placebo plus gemcitabine) was 7.5 months, the “Median survival time from entry into study Stage 3 to death from any cause” value ([2]; Intention to Treat, ECOG 0 or 1) was 3.19 months and the “Median survival time from entry into study Stage 3 to death from any cause” value ([2]; Intention to Treat, ECOG 2) was 2.79 months. For the same compound, the “Median survival time from entry into study Stage 3 to death from any cause” value ([2]; Intention to Treat, Overall) was 2.96 months, the “Median survival time from study enrollment to death from any cause” value ([2]; Intention to Treat, patients participating in study Stage 3, ECOG 0 or 1) was 7.13 months and the “Median survival time from study enrollment to death from any cause” value ([2]; Intention to Treat, patients participating in study Stage 3, ECOG 2) was 6.31 months.
